Results reported in patent US8853216B2, “Hydroxylated pyrimidyl cyclopentane as AKT protein kinase inhibitor” (Array BioPharma, Inc., priority 2008, dated 2014).
pIC50: −log10 of the molar value.

Target: full-length human recombinant active AKT-1 (Homo sapiens, UniProt P31749)
Assay: AKT-1 Kinase Assay (IMAP fluorescence polarization)
Assay type: biochemical
Conditions: phosphorylation of fluorescein-labeled Crosstide peptide by AKT-1, 60 minute incubation at ambient temperature
Excerpt: The activity of the compound described in the present invention may be determined by the following kinase assay, which measures the phosphorylation of a fluorescently-labeled peptide by full-length human recombinant active AKT-1 by fluorescent polarization using a commercially available IMAP kit.
The assay materials are obtained from an IMAP AKT Assay Bulk Kit, product #R8059, from Molecular Devices, Sunnyvale, Calif. The kit materials include an IMAP Reaction Buffer (5×). The diluted 1×IMAP Reaction Buffer contained 10 mM Tris-HCl, pH 7.2, 10 mM MgCl2, 0.1% BSA, 0.05% NaN3. DTT is routinely added to a final concentration of 1 mM immediately prior to use. Also included is IMAP Binding Buffer (5×), and IMAP Binding Reagent. The Binding Solution is prepared as a 1:400 dilution of IMAP Binding Reagent into 1×IMAP Binding Buffer.
The fluorescein-labeled AKT Substrate (Crosstide) has the sequence (Fl)-GRPRTSSFAEG. A stock solution of 20 μM is made up in 1×IMAP Reaction Buffer. […]
The assay is initiated by the addition of 2.5-μL aliquots of a solution containing 200 nM of fluorescently-labeled peptide substrate and 4 nM AKT-1. […] The reaction is then quenched by the addition of 15 μL of Binding Solution, centrifuged again and incubated for an additional 30 minutes at ambient temperature prior to reading on a Victor 1420 Multilabel HTS Counter configured to measure fluorescence polarization.

full-length human recombinant active AKT-1, sequence (P31749 whole entry): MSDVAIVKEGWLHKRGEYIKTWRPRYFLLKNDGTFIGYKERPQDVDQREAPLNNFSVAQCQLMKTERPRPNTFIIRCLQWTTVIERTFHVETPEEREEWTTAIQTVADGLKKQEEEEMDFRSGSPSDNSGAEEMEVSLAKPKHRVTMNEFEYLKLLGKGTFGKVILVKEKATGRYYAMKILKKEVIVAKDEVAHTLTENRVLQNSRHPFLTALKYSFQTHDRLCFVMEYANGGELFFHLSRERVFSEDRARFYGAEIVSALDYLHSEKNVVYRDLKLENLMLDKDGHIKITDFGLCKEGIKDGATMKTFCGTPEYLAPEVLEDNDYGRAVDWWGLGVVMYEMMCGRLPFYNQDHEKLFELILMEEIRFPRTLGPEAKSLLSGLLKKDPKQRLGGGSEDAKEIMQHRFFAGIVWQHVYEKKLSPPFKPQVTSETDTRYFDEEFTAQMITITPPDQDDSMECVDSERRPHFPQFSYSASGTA

## CO[C@H]1CC[C@H](NC[C@@H](C(=O)N2CCN(c3ncnc4c3[C@H](C)C[C@H]4O)CC2)c2ccc(Cl)c(F)c2)CC1 [Example 1, (S)-2-(4-chloro-3-fluorophenyl)-1-(4-((5R,7R)-7-hydroxy-5-methyl-6,7-dihydro-5H-cyclopenta[d]pyrimidin-4-yl)piperazin-1-yl)-3-((1r,4S)-4-methoxycyclohexylamino)propan-1-one]
  pIC50: > 6.30
